{"source": "ChEMBL document CHEMBL3885881", "about": "“DrugMatrix”", "species_on_record": "Rattus norvegicus", "assay": "DrugMatrix - Regimen: Daily Repeat", "type": "toxicity, organism-based, Sprague-Dawley", "design": "regimen Daily Repeat, gender Male, age 6-8 weeks", "details": "in vivo, po, 0 mg/kg, route oral GAVAGE, dose level Control, vehicle .5 % CMC; for ABSOLUTE BASOPHIL / ABSOLUTE EOSINOPHIL / ABSOLUTE LYMPHOCYTE / ABSOLUTE MONOCYTE / ABSOLUTE SEGMENTED NEUTROPHIL / BASOPHIL / EOSINOPHIL / ERYTHROCYTE COUNT / HEMATOCRIT / HEMOGLOBIN / LEUKOCYTE COUNT / LYMPHOCYTE / MEAN CORPUSCULAR HEMOGLOBIN / MEAN CORPUSCULAR HEMOGLOBIN CONCENTRATION / MEAN CORPUSCULAR VOLUME / MONOCYTE / NEUTROPHIL / NUCLEATED RED BLOOD CELLS / PLATELET COUNT: tissue Blood; for ALANINE AMINOTRANSFERASE / ALBUMIN / ALKALINE PHOSPHATASE / ASPARTATE AMINOTRANSFERASE / BLOOD UREA NITROGEN / CARBON DIOXIDE / CHLORIDE / CHOLESTEROL / CREATININE / GLUCOSE / LACTATE DEHYDROGENASE / LIPASE / PHOSPHORUS / POTASSIUM / SODIUM / TOTAL BILIRUBIN / TOTAL PROTEIN / URIC ACID: tissue Plasma", "data": [{"molecule": "ClC(Br)Br", "note": "[DIBROMOCHLOROMETHANE]", "values": [{"measurement": "ABSOLUTE BASOPHIL", "setting": "120 h, time 5 day", "result": 0, "unit": "CELLS/uL"}, {"measurement": "ABSOLUTE EOSINOPHIL", "setting": "120 h, time 5 day", "result": 18.5, "unit": "CELLS/uL"}, {"measurement": "ABSOLUTE LYMPHOCYTE", "setting": "120 h, time 5 day", "result": 8146.83, "unit": "CELLS/uL"}, {"measurement": "ABSOLUTE MONOCYTE", "setting": "120 h, time 5 day", "result": 204.83, "unit": "CELLS/uL"}, {"measurement": "ABSOLUTE SEGMENTED NEUTROPHIL", "setting": "120 h, time 5 day", "result": 1329.83, "unit": "CELLS/uL"}, {"measurement": "BASOPHIL", "setting": "120 h, time 5 day", "result": 0, "unit": "%"}, {"measurement": "EOSINOPHIL", "setting": "120 h, time 5 day", "result": 0.17, "unit": "%"}, {"measurement": "ERYTHROCYTE COUNT", "setting": "120 h, time 5 day", "result": 5.37, "unit": "x10E6/uL"}, {"measurement": "HEMATOCRIT", "setting": "120 h, time 5 day", "result": 33.17, "unit": "%"}, {"measurement": "HEMOGLOBIN", "setting": "120 h, time 5 day", "result": 12.07, "unit": "G/DL"}, {"measurement": "LEUKOCYTE COUNT", "setting": "120 h, time 5 day", "result": 9.7, "unit": "x10E3/uL"}, {"measurement": "LYMPHOCYTE", "setting": "120 h, time 5 day", "result": 85.33, "unit": "%"}, {"measurement": "MEAN CORPUSCULAR HEMOGLOBIN", "setting": "120 h, time 5 day", "result": 22.52, "unit": "pg"}, {"measurement": "MEAN CORPUSCULAR HEMOGLOBIN CONCENTRATION", "setting": "120 h, time 5 day", "result": 36.42, "unit": "G/DL"}, {"measurement": "MEAN CORPUSCULAR VOLUME", "setting": "120 h, time 5 day", "result": 61.78, "unit": "fL"}, {"measurement": "MONOCYTE", "setting": "120 h, time 5 day", "result": 1.83, "unit": "%"}, {"measurement": "NEUTROPHIL", "setting": "120 h, time 5 day", "result": 12.67, "unit": "%"}, {"measurement": "NUCLEATED RED BLOOD CELLS", "setting": "120 h, time 5 day", "result": "0 /100WBC"}, {"measurement": "PLATELET COUNT", "setting": "120 h, time 5 day", "result": 907.5, "unit": "x10E3/uL"}, {"measurement": "ALANINE AMINOTRANSFERASE", "setting": "120 h, time 5 day", "result": 58.5, "unit": "u/L"}, {"measurement": "ALBUMIN", "setting": "120 h, time 5 day", "result": 4.4, "unit": "G/DL"}, {"measurement": "ALKALINE PHOSPHATASE", "setting": "120 h, time 5 day", "result": 377.67, "unit": "u/L"}, {"measurement": "ASPARTATE AMINOTRANSFERASE", "setting": "120 h, time 5 day", "result": 140.33, "unit": "u/L"}, {"measurement": "BLOOD UREA NITROGEN", "setting": "120 h, time 5 day", "result": 15.33, "unit": "mg/dL"}, {"measurement": "CARBON DIOXIDE", "setting": "120 h, time 5 day", "result": 32.17, "unit": "mmol/L"}, {"measurement": "CHLORIDE", "setting": "120 h, time 5 day", "result": 100, "unit": "MEQ/L"}, {"measurement": "CHOLESTEROL", "setting": "120 h, time 5 day", "result": 71.83, "unit": "mg/dL"}, {"measurement": "CREATININE", "setting": "120 h, time 5 day", "result": 0.18, "unit": "mg/dL"}, {"measurement": "GLUCOSE", "setting": "120 h, time 5 day", "result": 185, "unit": "mg/dL"}, {"measurement": "LACTATE DEHYDROGENASE", "setting": "120 h, time 5 day", "result": 241.5, "unit": "u/L"}, {"measurement": "LIPASE", "setting": "120 h, time 5 day", "result": 9.5, "unit": "u/L"}, {"measurement": "PHOSPHORUS", "setting": "120 h, time 5 day", "result": 13.02, "unit": "mg/dL"}, {"measurement": "POTASSIUM", "setting": "120 h, time 5 day", "result": 6.45, "unit": "MEQ/L"}, {"measurement": "SODIUM", "setting": "120 h, time 5 day", "result": 143.45, "unit": "MEQ/L"}, {"measurement": "TOTAL BILIRUBIN", "setting": "120 h, time 5 day", "result": 0.22, "unit": "mg/dL"}, {"measurement": "TOTAL PROTEIN", "setting": "120 h, time 5 day", "result": 6.1, "unit": "G/DL"}, {"measurement": "URIC ACID", "setting": "120 h, time 5 day", "result": 1, "unit": "mg/dL"}, {"measurement": "ABSOLUTE BASOPHIL", "setting": "[…], time 14 day", "result": 0, "unit": "CELLS/uL"}, {"measurement": "ABSOLUTE EOSINOPHIL", "setting": "[…], time 14 day", "result": 117.17, "unit": "CELLS/uL"}, {"measurement": "ABSOLUTE LYMPHOCYTE", "setting": "[…], time 14 day", "result": 13562, "unit": "CELLS/uL"}, {"measurement": "ABSOLUTE MONOCYTE", "setting": "[…], time 14 day", "result": 534.83, "unit": "CELLS/uL"}, {"measurement": "ABSOLUTE SEGMENTED NEUTROPHIL", "setting": "[…], time 14 day", "result": 2486, "unit": "CELLS/uL"}, {"measurement": "BASOPHIL", "setting": "[…], time 14 day", "result": 0, "unit": "%"}, {"measurement": "EOSINOPHIL", "setting": "[…], time 14 day", "result": 0.83, "unit": "%"}, {"measurement": "ERYTHROCYTE COUNT", "setting": "[…], time 14 day", "result": 6.14, "unit": "x10E6/uL"}, {"measurement": "HEMATOCRIT", "setting": "[…], time 14 day", "result": 36.87, "unit": "%"}, {"measurement": "HEMOGLOBIN", "setting": "[…], time 14 day", "result": 13.87, "unit": "G/DL"}, {"measurement": "LEUKOCYTE COUNT", "setting": "[…], time 14 day", "result": 16.7, "unit": "x10E3/uL"}, {"measurement": "LYMPHOCYTE", "setting": "[…], time 14 day", "result": 81, "unit": "%"}, {"measurement": "MEAN CORPUSCULAR HEMOGLOBIN", "setting": "[…], time 14 day", "result": 22.63, "unit": "pg"}, {"measurement": "MEAN CORPUSCULAR HEMOGLOBIN CONCENTRATION", "setting": "[…], time 14 day", "result": 37.62, "unit": "G/DL"}, {"measurement": "MEAN CORPUSCULAR VOLUME", "setting": "[…], time 14 day", "result": 60.15, "unit": "fL"}, {"measurement": "MONOCYTE", "setting": "[…], time 14 day", "result": 3.17, "unit": "%"}, {"measurement": "NEUTROPHIL", "setting": "[…], time 14 day", "result": 15, "unit": "%"}, {"measurement": "NUCLEATED RED BLOOD CELLS", "setting": "[…], time 14 day", "result": "0 /100WBC"}, {"measurement": "PLATELET COUNT", "setting": "[…], time 14 day", "result": 974.83, "unit": "x10E3/uL"}, {"measurement": "ALANINE AMINOTRANSFERASE", "setting": "[…], time 14 day", "result": 52.33, "unit": "u/L"}, {"measurement": "ALBUMIN", "setting": "[…], time 14 day", "result": 4.48, "unit": "G/DL"}, {"measurement": "ALKALINE PHOSPHATASE", "setting": "[…], time 14 day", "result": 346.17, "unit": "u/L"}, {"measurement": "ASPARTATE AMINOTRANSFERASE", "setting": "[…], time 14 day", "result": 81, "unit": "u/L"}, {"measurement": "BLOOD UREA NITROGEN", "setting": "[…], time 14 day", "result": 15.67, "unit": "mg/dL"}, {"measurement": "CARBON DIOXIDE", "setting": "[…], time 14 day", "result": 34.33, "unit": "mmol/L"}, {"measurement": "CHLORIDE", "setting": "[…], time 14 day", "result": 100.17, "unit": "MEQ/L"}, {"measurement": "CHOLESTEROL", "setting": "[…], time 14 day", "result": 70.83, "unit": "mg/dL"}, {"measurement": "CREATININE", "setting": "[…], time 14 day", "result": 0.22, "unit": "mg/dL"}, {"measurement": "GLUCOSE", "setting": "[…], time 14 day", "result": 141.17, "unit": "mg/dL"}, {"measurement": "LACTATE DEHYDROGENASE", "setting": "[…], time 14 day", "result": 121.33, "unit": "u/L"}, {"measurement": "LIPASE", "setting": "[…], time 14 day", "result": 8.33, "unit": "u/L"}, {"measurement": "PHOSPHORUS", "setting": "[…], time 14 day", "result": 9.97, "unit": "mg/dL"}, {"measurement": "POTASSIUM", "setting": "[…], time 14 day", "result": 6.4, "unit": "MEQ/L"}, {"measurement": "SODIUM", "setting": "[…], time 14 day", "result": 143.72, "unit": "MEQ/L"}, {"measurement": "TOTAL BILIRUBIN", "setting": "[…], time 14 day", "result": 0.22, "unit": "mg/dL"}, {"measurement": "TOTAL PROTEIN", "setting": "[…], time 14 day", "result": 6.45, "unit": "G/DL"}, {"measurement": "URIC ACID", "setting": "[…], time 14 day", "result": 1.25, "unit": "mg/dL"}]}]}
